Test system: normal human lung fibroblasts, human bronchial epithelial cells, and human pulmonary alveolar epithelial cells
Experiment: Secreted protein expression after LPA induction, aptamer-based proteomic platform (SomaLogic, 1129 proteins)
Assay type: cell-based
Conditions: 24 hours
Protocol: Changes in gene expression after 3 hours of LPA induction were profiled on Affymetrix Human Gene ST 2.0 microarrays; differentially expressed genes identified by ANOVA with FDR <0.05 and fold-change >1.2. Process networks associated with differentially expressed genes were defined using MetaCore. Changes in secreted protein expression after 24 hours of LPA induction were profiled on an aptamer-based proteomic platform (1129 proteins); differentially expressed proteins identified by t-test.
Treatment of cells with LPA, isolation supernatant, analysis of secreted protein expression using soma panel was performed as follows: Supernatant was collected from in vitro cultures of normal human lung fibroblasts, human bronchial epithelial cells, and human pulmonary alveolar epithelial cells treated for 24 hours with LPA and/or LPAR1 inhibitor. Each treatment condition was assayed in triplicate. 1129 proteins were profiled using a broad aptamer-based proteomic platform (SomaLogic, Colo., US). Briefly, the technology uses DNA aptamers containing chemically modified nucleotides as highly specific protein binding reagents in a multiplexed assay that transforms the quantity of each targeted protein into a corresponding quantify of the aptamer. Protein quantities are then detected on a microarray platform and recorded as Relative Fluorescence Units (RFU).
In Tables 1-5 The differentially expressed secreted proteins set forth in Tables 1, 2, and 5 and the differentially expressed mRNAs set forth in Table 3 and 4 were identified by visual inspection of individual dot-plots.
For the gene and protein expression analysis primary fibroblasts (NHLF product #CC-2512 from Lonza group LTD) and primary epithelial cells (NHBE Product #CC-2540 from Lonza; HPAEpiC Product #3200 from Sciencell (USA, California)) were cultured as recommended by the manufacturer, except they were cultured on collagen coated plates. As part of the induction protocol cells were starved overnight in low (0.2 or 0.1% serum) or no serum (0%), prior to stimulation with LPA.

lysophosphatidic acid [LPA]
effect of LPA, 41 (EPB41): up
effect of LPA, ADAM 9 (ADAM9): up
effect of LPA, ALCAM (ALCAM): up
effect of LPA, ANGL4 (ANGPTL4): up
effect of LPA, AREG (AREG): up
effect of LPA, ARTS1 (ERAP1): up
effect of LPA, ASM3A (SMPDL3A): up
effect of LPA, ATS1 (ADAMTS1): down
effect of LPA, Activin A (INHBA): up
effect of LPA, Aminoacylase-1 (ACY1): up
effect of LPA, Angiogenin (ANG): up
effect of LPA, Angiopoietin-1 (ANGPT1): up
effect of LPA, Angiopoietin-2 (ANGPT2): down
effect of LPA, Angiostatin (PLG): down
effect of LPA, Apo E2 (APOE): down
effect of LPA, Apo E3 (APOE): down
effect of LPA, B7-H1 (CD274): up
effect of LPA, BASI (BSG): up
effect of LPA, BFL1 (BCL2A1): up
effect of LPA, BGH3 (TGFBI): up
effect of LPA, BGN (BGN): up
effect of LPA, BSSP4 (PRSS22): up
effect of LPA, Bone proteoglycan II (DCN): up
effect of LPA, CAPG (CAPG): up
effect of LPA, CATZ (CTSZ): up
effect of LPA, CK2-A1:B (CSNK2A1 CSNK2B): up
effect of LPA, COMMD7 (COMMD7): up
effect of LPA, CRDL1 (CHRDL1): up
effect of LPA, CTAP-III (PPBP): up
effect of LPA, Caspase-3 (CASP3): up
effect of LPA, Cathepsin A (CTSA): up
effect of LPA, Cathepsin H (CTSH): up
effect of LPA, Cathepsin S (CTSS): up
effect of LPA, Cathepsin V (CTSL2): up
effect of LPA, Coagulation Factor Xa (F10): down
effect of LPA, Cofilin-1 (CFL1): up
effect of LPA, Cyclophilin A (PPIA): up
effect of LPA, Cystatin M (CST6): up
effect of LPA, DAF (CD55): up
effect of LPA, DBNL (DBNL): up
effect of LPA, DERM (DPT): down
effect of LPA, DKK1 (DKK1): up
effect of LPA, DKK3 (DKK3): up
effect of LPA, DPP2 (DPP7): up
effect of LPA, DcR3 (TNFRSF6B): up
effect of LPA, Discoidin domain receptor 2 (DDR2): up
effect of LPA, Dkk-4 (DKK4): up
effect of LPA, EMR2 (EMR2): up
effect of LPA, ENA-78 (CXCL5): up
effect of LPA, EPHA3 (EPHA3): up
effect of LPA, EPI (EREG): up
effect of LPA, Elafin (PI3): up
effect of LPA, Endocan (ESM1): up
effect of LPA, Endothelin-converting enzyme 1 (ECE1): up
effect of LPA, Eotaxin (CCL11): up
effect of LPA, EphB4 (EPHB4): up
effect of LPA, Ephrin-A5 (EFNA5): up
effect of LPA, Ephrin-B3 (EFNB3): up
effect of LPA, Epithelial cell kinase (EPHA2): up
effect of LPA, FCAR (FCAR): down
effect of LPA, FGF7 (FGF7): up
effect of LPA, FGF-18 (FGF18): down
effect of LPA, FGF-20 (FGF20): up
effect of LPA, FST (FST): up
effect of LPA, FSTL3 (FSTL3): up
effect of LPA, Flt-3 (FLT3): up
effect of LPA, G-CSF (CSF3): up
effect of LPA, GAPDH liver (GAPDH): up
effect of LPA, GCP-2 (CXCL6): up
effect of LPA, GDF-9 (GDF9): down
effect of LPA, GREM1 (GREM1): up
effect of LPA, GRN (GRN): up
effect of LPA, GV (PLA2G5): up
effect of LPA, Galectin-3 (LGALS3): up
effect of LPA, Gro-a (CXCL1): up
effect of LPA, Gro-b/g (CXCL3 CXCL2): up
effect of LPA, HGF (HGF): up
effect of LPA, IDE (IDE): up
effect of LPA, IGF-I sR (IGF1R): up
effect of LPA, IGF-II receptor (IGF2R): up
effect of LPA, IGFBP-2 (IGFBP2): down
effect of LPA, IGFBP-3 (IGFBP3): up
effect of LPA, IGFBP-7 (IGFBP7): up
effect of LPA, IL-1 R4 (IL1RL1): up
effect of LPA, IL-6 (IL6): up
effect of LPA, IL-6 sRa (IL6R): up
effect of LPA, IL-8 (IL8): up
effect of LPA, IL-11 (IL11): up
effect of LPA, IL-12 RB2 (IL12RB2): up
effect of LPA, IL-17D (IL17D): up
effect of LPA, IP-10 (CXCL10): up
effect of LPA, JAG1 (JAG1): up
effect of LPA, JAG2 (JAG2): up
effect of LPA, KPCI (PRKCI): up
effect of LPA, LG3BP (LGALS3BP): up
effect of LPA, LGMN (LGMN): up
effect of LPA, LRIG3 (LRIG3): up
effect of LPA, Layilin (LAYN): up
effect of LPA, MCP-1 (CCL2): up
effect of LPA, MCP-3 (CCL7): up
effect of LPA, MICA (MICA): up
effect of LPA, MICB (MICB): up
effect of LPA, MIP-3a (CCL20): up
effect of LPA, MMP-1 (MMP1): up
effect of LPA, MMP-3 (MMP3): up
effect of LPA, MMP-9 (MMP9): up
effect of LPA, MMP-10 (MMP10): up
effect of LPA, MMP-12 (MMP12): up
effect of LPA, MMP-13 (MMP13): up
effect of LPA, MRC2 (MRC2): up
effect of LPA, Met (MET): up
effect of LPA, Midkine (MDK): up
effect of LPA, NAGK (NAGK): up
effect of LPA, NAP-2 (PPBP): up
effect of LPA, NCAM-L1 (L1CAM): up
effect of LPA, NET4 (NTN4): up
effect of LPA, NID2 (NID2): up
effect of LPA, NKp46 (NCR1): up
effect of LPA, NRP1 (NRP1): up
effect of LPA, NRX3B (NRXN3): up
effect of LPA, NXPH1 (NXPH1): up
effect of LPA, Neurotrophin-3 (NTF3): up
effect of LPA, Nogo Receptor (RTN4R): up
effect of LPA, NovH (NOV): up
effect of LPA, OMD (OMD): up
effect of LPA, ON (SPARC): up
effect of LPA, PAI-1 (SERPINE1): up
effect of LPA, PARK7 (PARK7): up
effect of LPA, PCSK7 (PCSK7): up
effect of LPA, PDGF-AA (PDGFA): up
effect of LPA, PDGF-BB (PDGFB): up
effect of LPA, PTHrP (PTHLH): up
effect of LPA, Protease nexin I (SERPINE2): up
effect of LPA, RAC1 (RAC1): up
effect of LPA, RANTES (CCL5): up
effect of LPA, RAP (LRPAP1): up
effect of LPA, RGMB (RGMB): up
effect of LPA, ROBO2 (ROBO2): up
effect of LPA, SARP-2 (SFRP1): up
effect of LPA, SCGF-alpha (CLEC11A): up
effect of LPA, SDF-1 (CXCL12): up
effect of LPA, SLIK5 (SLITRK5): up
effect of LPA, ST4S6 (CHST15): up
effect of LPA, Semaphorin 3A (SEMA3A): up
effect of LPA, Sphingosine kinase 1 (SPHK1): up
effect of LPA, Spondin-1 (SPON1): down
effect of LPA, TAJ (TNFRSF19): up
effect of LPA, TFPI (TFPI): up
effect of LPA, TGF-b R III (TGFBR3): up
effect of LPA, TIG2 (RARRES2): up
effect of LPA, TIMP-3 (TIMP3): up
effect of LPA, TNF sR-I (TNFRSF1A): up
effect of LPA, TNF sR-II (TNFRSF1B): up
effect of LPA, TNFSF15 (TNFSF15): up
effect of LPA, TSG-6 (TNFAIP6): up
effect of LPA, TSLP (TSLP): up
effect of LPA, TSP2 (THBS2): up
effect of LPA, TWEAK (TNFSF12): down
effect of LPA, TXD12 (TXNDC12): up
effect of LPA, Thrombospondin-1 (THBS1): up
effect of LPA, TrATPase (ACP5): down
effect of LPA, UNC5H3 (UNC5C): up
effect of LPA, URB (CCDC80): up
effect of LPA, VEGF121 (VEGFA): up
effect of LPA, VEGF (VEGFA): up
effect of LPA, VEGF-C (VEGFC): up
effect of LPA, WKFN1 (GPRASP2): down
effect of LPA, annexin I (ANXA1): up
effect of LPA, discoidin domain receptor 1 (DDR1): up
effect of LPA, eIF-5A-1 (EIF5A): down
effect of LPA, sFRP-3 (FRZB): down
effect of LPA, suPAR (PLAUR): up
effect of LPA, uPA (PLAU): up
